Source: patent US7754772B2, “Nitrosated nonsteroidal antiinflammatory compounds, compositions and methods of use” (NicOx, S.A., priority 2002, dated 2010)
Like-named read-outs stand apart in the source and are kept apart here.

Columns and labels:
[1] = tested on: Male Sprague-Dawley rats, carrageenan paw edema; test: rat paw edema test (carrageenan), antiinflammatory activity; assay type: in vivo
Method: The rat paw edema test was used to measure the antiinflammatory activity. The rat paw edema test was performed according to the method of Winter et al, Proc. Soc. […] Male Sprague-Dawley rats (250-275 g) were fasted overnight and dosed by oral gavage with vehicle or suspensions of compound one hour prior to the subplantar injection of 50 μl of 1% suspension of carrageenan. Three hours later, the paw volume was measured and compared with the initial volume measured immediately after carrageenan injection.

[2] = tested on: Male Sprague Dawley rats, gastric hemorrhagic lesion; conditions: rat, in vivo, po
Method: (§1) Male Sprague Dawley rats (Charles River Laboratories, Wilmington, Mass.) weighing 230-250 g were used for the experiments. The rats were housed with laboratory chow and water ad libitum prior to the study. The rats were fasted for 24 hours with free access to water and then dosed by oral gavage with vehicle or with test compounds given at a volume of 0.5 mL/100 g. […] Rats were euthanized by CO2 three hours after dosing. The stomachs were dissected along the greater curvature, washed with a directed stream of 0.9% saline and pinned open on a sylgard based petri dish for examination of the hemorrhagic lesion. Gastric lesion score was expressed in mm and calculated by summing the length of each lesion.

[3] = tested on: Male Sprague Dawley rats, gastric hemorrhagic lesion; test: rat gastric lesion test; conditions: rat fasted 24 hours, oral gavage, lesion score (summed length, mm) three hours after dosing; ratio relative to parent NSAID (Naproxen = 1)
Method: as §1

[4] = oral gavage one hour prior to subplantar carrageenan, paw volume three hours later, expressed as ratio (Vehicle = 1)

| Relative Activity Gastric Lesion [3] | melting point [°C] | SMILES | Relative Activity Antiinflammation [1, 4] | Relative Activity Gastric Lesion [2] | Relative Activity Antiinflammation ([1]; in vivo, po) |
| --- | --- | --- | --- | --- | --- |
|  |  | COc1ccc2cc([C@H](C)C(=O)Oc3ccccc3C(=O)OCCO[N+](=O)[O-])ccc2c1 [Example 33] | 0.60 | 0.07 |  |
|  |  | COc1ccc2cc([C@H](C)C(=O)OCC(=O)N3CCN(CCO[N+](=O)[O-])CC3)ccc2c1.Cl [Example 37, 2-(4-(2-(Nitrooxy)ethyl)piperazinyl)-2-oxoethyl (2S)-2-(6-methoxy(2-naphthyl))propanoate hydrogen chloride] |  | 0.72 | 0.56 |
|  |  | COc1ccc2cc(C(C)C(=O)OCCN(CCO[N+](=O)[O-])c3ccc([N+](=O)[O-])cc3)ccc2c1 (centres unmarked) [Example 4, 2-((2-(Nitrooxy)ethyl)4-nitrophenyl)amino)ethyl 2-(6-methoxy-2-naphthyl) propanoate] | 0.92 | 0.04 |  |
|  |  | COc1ccc2cc([C@H](C)C(=O)Oc3cccc(C(=O)OCCO[N+](=O)[O-])c3)ccc2c1 [Example 36] |  | 0.57 | 0.65 |
| 0.07 |  | COc1ccc2cc([C@H](C)C(=O)OCC(=O)O[C@@H]3CO[C@H]4[C@H]3OC[C@H]4O[N+](=O)[O-])ccc2c1 [Example 26, (1S,5S,2R,6R)-6-(Nitrooxy)-4,8-dioxabicyclo(3.3.0)oct-2-yl)oxycarbonyl) methyl (2S)-2-(6-methoxy (2-naphthyl)) propanoate] | 0.75 |  |  |
| 0.18 |  | COc1ccc2cc([C@H](C)C(=O)OCC(C)(CO[N+](=O)[O-])[N+](=O)[O-])ccc2c1 (stereo partly drawn) [Example 12, 2-Methyl-2-nitro-3-(nitrooxy)propyl(2S)-2-(6-methoxy(2-naphthyl)) propanoate] | 0.47 |  |  |
|  |  | COc1ccc2cc([C@H](C)C(=O)OC[C@H](CO[N+](=O)[O-])O[N+](=O)[O-])ccc2c1 [Example 5] |  | 0.21 | 0.45 |
| 0.11 |  | COc1ccc2cc([C@H](C)C(=O)OCCS(=O)(=O)CCO[N+](=O)[O-])ccc2c1 [Example 2, 2-((2-(Nitrooxy)ethyl)sulfonyl)ethyl (2S)-2-(6-methoxy(2-naphthyl)) propanoate] | 0.49 |  |  |
| 0.02 |  | COc1ccc2cc([C@H](C)C(=O)OCC3(CO[N+](=O)[O-])COCOC3)ccc2c1 [Example 9] | 0.69 |  |  |
|  |  | COc1ccc2cc([C@H](C)C(=O)NOCC(=O)N3CCC(CO[N+](=O)[O-])CC3)ccc2c1 [Example 35, (2S)-2-(6-Methoxy(2-naphthyl))-N-(2-(4-((nitrooxy)methyl)piperidyl)-2-oxoethoxy)propanamide] | 0.06 |  |  |
| 0.02 | 104 to 105 | COc1ccc2cc([C@H](C)C(=O)OCC(=O)N(C)CCCO[N+](=O)[O-])ccc2c1 [Example 34, (N-methyl-N-(3-(nitrooxy)propyl)carbamoyl)methyl (2S)-2-(6-methoxy(2-naphthyl))propanoate] |  |  |  |
|  |  | COc1ccc2cc([C@H](C)C(=O)OCC(=O)N3CCC(CCO[N+](=O)[O-])CC3)ccc2c1 [Example 31, 2-(4-(2-(nitrooxy)ethyl)piperidyl)-2-oxoethyl (2S)-2-(6-methoxy(2-naphthyl))propanoate] | 0.61 | 0.06 |  |
|  |  | COc1ccc2cc([C@H](C)C(=O)OCC(=O)N3CCC(CO[N+](=O)[O-])CC3)ccc2c1 [Example 19, 2-(4-((Nitrooxy)methyl)piperidyl)-2-oxoethyl (2S)-2-(6-methoxy(2-naphthyl))propanoate] | 0.60 | 0.30 |  |
|  |  | COc1ccc2cc([C@H](C)C(=O)OC[C@@H](O)CO[N+](=O)[O-])ccc2c1 [Example 28, (2R)-2-hydroxy-3-(nitrooxy)propyl (2S)-2-(6-methoxy(2-naphthyl)) propanoate] | 0.57 |  |  |
